Test results as given in PubChem BioAssay AID330 (DTP/NCI, 2004).
Values joined by “and” are separate entries in the source; they are usually repeats but may differ in a detail not shown here. Identical values can stand only once. Inconclusive results and toxic doses are left out. How the source made its calls: active means survival T/C of 150% or more; inactive means T/C below 125% in these data.

Tested on: P388 leukemia ip, CD2F1 mice, survival T/C
Experiment: NCI In Vivo Anticancer Drug Screen. Data for tumor model P388 Leukemia (intraperitoneal) in CD2F1 (CDF1) mice
Details: endpoint: median survival time, higher = longer survival
How it was run: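 Mice carrying the transplanted tumor received test compound or vehicle. Survival was recorded in each group, and the value is the treated-group measurement divided by that of the vehicle-treated control group.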

[1] = dose: 60.0 mg/kg/injection, schedule: Q01DX005 (ip), vehicle: saline with Tween-80
[2] = dose: 120.0 mg/kg/injection, schedule: Q01DX005 (ip), vehicle: saline with Tween-80
[3] = dose: 240.0 mg/kg/injection, schedule: Q01DX005 (ip), vehicle: saline with Tween-80
[4] = dose: 12.5 mg/kg/injection, schedule: Q01DX009 (ip), vehicle: Klucel (hydroxypropylcellulose) (HPC)
[5] = dose: 50.0 mg/kg/injection, schedule: Q01DX009 (ip), vehicle: Klucel (hydroxypropylcellulose) (HPC)
[6] = dose: 100.0 mg/kg/injection, schedule: Q01DX009 (ip), vehicle: Klucel (hydroxypropylcellulose) (HPC)
[7] = dose: 100.0 mg/kg/injection, schedule: Q01DX009 (ip), vehicle: saline
[8] = dose: 200.0 mg/kg/injection, schedule: Q01DX009 (ip), vehicle: saline
[9] = dose: 25.0 mg/kg/injection, schedule: Q01DX009 (ip), vehicle: Klucel (hydroxypropylcellulose) (HPC)

Measured: T/C

Cc1cc(NN=O)nc(C)n1
active: dose: 200.0 mg/kg/injection, schedule: Q01DX009 (ip), vehicle: water 166 % of control
inactive: dose: 3.12 mg/kg/injection, schedule: Q01DX009 (ip), vehicle: water 98 % of control | dose: 6.25 mg/kg/injection, schedule: Q01DX009 (ip), vehicle: water 98 % of control | dose: 12.5 mg/kg/injection, schedule: Q01DX009 (ip), vehicle: water 98 % of control | dose: 25.0 mg/kg/injection, schedule: Q01DX009 (ip), vehicle: water 100 % of control and 101 % of control | dose: 50.0 mg/kg/injection, schedule: Q01DX009 (ip), vehicle: water 104 % of control and 106 % of control

CC(=O)OC1C(C)OC(OC(=O)C2CCC3C(C2)OC2(CC(OC(=O)/C=C/c4ccccc4)C(C)CO2)C32CO2)C(OC2OC(C)C(O)C(OC(C)=O)C2O)C1O (stereo not drawn)
active: dose: 6.68 mg/kg/injection, schedule: Q01DX009 (ip), vehicle: saline + alcohol 152 % of control
inactive: dose: 0.62 mg/kg/injection, schedule: Q01DX009 (ip), vehicle: saline + alcohol 97 % of control | dose: 0.75 mg/kg/injection, schedule: Q01DX005 (ip), vehicle: saline + alcohol 97 % of control | dose: 1.25 mg/kg/injection, schedule: Q01DX009 (ip), vehicle: saline + alcohol 105 % of control | dose: 1.5 mg/kg/injection, schedule: Q01DX005 (ip), vehicle: saline + alcohol 106 % of control | dose: 1.67 mg/kg/injection, schedule: Q01DX009 (ip), vehicle: saline + alcohol 113 % of control | dose: 1.75 mg/kg/injection, schedule: Q01DX009 (ip), vehicle: saline + alcohol 104 % of control | dose: 2.5 mg/kg/injection, schedule: Q01DX009 (ip), vehicle: saline + alcohol 105 % of control | dose: 3.0 mg/kg/injection, schedule: Q01DX005 (ip), vehicle: saline + alcohol 114 % of control | dose: 3.5 mg/kg/injection, schedule: Q01DX009 (ip), vehicle: saline + alcohol 108 % of control | dose: 5.0 mg/kg/injection, schedule: Q01DX009 (ip), vehicle: saline + alcohol 106 % of control | dose: 6.0 mg/kg/injection, schedule: Q01DX005 (ip), vehicle: saline + alcohol 115 % of control | dose: 7.0 mg/kg/injection, schedule: Q01DX009 (ip), vehicle: saline + alcohol 110 % of control | dose: 13.35 mg/kg/injection, schedule: Q01DX009 (ip), vehicle: saline + alcohol 111 % of control | dose: 14.0 mg/kg/injection, schedule: Q01DX009 (ip), vehicle: saline + alcohol 118 % of control

C=COC(=O)C(Cc1ccc(F)cc1)NC(=O)OCc1ccccc1 (stereo not drawn)
inactive: dose: 100.0 mg/kg/injection, schedule: Q04DX002 (ip), vehicle: Klucel (hydroxypropylcellulose) (HPC) 103 % of control | dose: 200.0 mg/kg/injection, schedule: Q04DX002 (ip), vehicle: Klucel (hydroxypropylcellulose) (HPC) 97 % of control | dose: 400.0 mg/kg/injection, schedule: Q04DX002 (ip), vehicle: Klucel (hydroxypropylcellulose) (HPC) 97 % of control

COc1cc(C=Nc2ccc3c(c2)OCO3)cc(OC)c1OC
inactive: [1] 103 % of control | [2] 100 % of control | [3] 86 % of control

CSc1nc(N)c(-c2ccc([N+](=O)[O-])cc2)s1
inactive: [1] 97 % of control | [2] 97 % of control | [3] 97 % of control

O=c1c(Cc2c[nH]c3ccccc23)coc2ccccc12
inactive: [1] 100 % of control | [2] 90 % of control | [3] 89 % of control

C=CC(COC(=O)C(C)(C)OC(C)=O)c1ccc(OC(=O)C(C)C)c(OC)c1 (stereo not drawn)
inactive: [4] 94 % of control | [5] 100 % of control | [6] 102 % of control

C=C(COC(=O)/C=C\C)C(=O)OCC
inactive: dose: 50.0 mg/kg/injection, schedule: Q01DX009 (ip), vehicle: saline 106 % of control | [7] 99 % of control | [8] 106 % of control

CCOC(=O)C1(c2ccccc2)CCN(c2c3ccccc3nc3ccccc23)CC1
inactive: dose: 25.0 mg/kg/injection, schedule: Q04DX003 (ip), vehicle: Klucel (hydroxypropylcellulose) (HPC) 112 % of control | dose: 50.0 mg/kg/injection, schedule: Q04DX003 (ip), vehicle: Klucel (hydroxypropylcellulose) (HPC) 111 % of control | dose: 100.0 mg/kg/injection, schedule: Q04DX003 (ip), vehicle: Klucel (hydroxypropylcellulose) (HPC) 111 % of control and 115 % of control

O=C(NCc1ccccc1)c1cccnc1
inactive: [7] 100 % of control | [8] 98 % of control | dose: 400.0 mg/kg/injection, schedule: Q01DX009 (ip), vehicle: saline 100 % of control

O=[N+]([O-])c1cccnc1S(=O)(=O)c1ncccn1
inactive: dose: 6.25 mg/kg/injection, schedule: Q01DX009 (ip), vehicle: Klucel (hydroxypropylcellulose) (HPC) 100 % of control | [4] 110 % of control | [9] 96 % of control

C=C1CCN(c2ccccc2)C1=O
inactive: dose: 4.0 mg/kg/injection, schedule: Q01DX009 (ip), vehicle: saline + alcohol 107 % of control | dose: 8.0 mg/kg/injection, schedule: Q01DX009 (ip), vehicle: saline + alcohol 92 % of control | dose: 16.0 mg/kg/injection, schedule: Q01DX009 (ip), vehicle: saline + alcohol 105 % of control | dose: 32.0 mg/kg/injection, schedule: Q01DX009 (ip), vehicle: saline + alcohol 101 % of control | dose: 64.0 mg/kg/injection, schedule: Q01DX009 (ip), vehicle: saline + alcohol 107 % of control

CCC[CH2][Sn]([CH2]CCC)([O]S(=O)c1ccccc1)[O]S(=O)c1ccccc1 (stereo not drawn)
inactive: dose: 3.12 mg/kg/injection, schedule: Q01DX001 (ip), vehicle: saline with Tween-80 103 % of control | dose: 6.25 mg/kg/injection, schedule: Q01DX001 (ip), vehicle: saline with Tween-80 119 % of control

OCC1(C2CCN(Cc3ccccc3)CC2)OCCO1
inactive: dose: 25.0 mg/kg/injection, schedule: Q01DX005 (ip), vehicle: saline 101 % of control | dose: 50.0 mg/kg/injection, schedule: Q01DX005 (ip), vehicle: saline 100 % of control | dose: 100.0 mg/kg/injection, schedule: Q01DX005 (ip), vehicle: saline 101 % of control

O=S1(=O)c2ccccc2N(c2ccccc2)c2nnnn21
inactive: [1] 88 % of control | [2] 96 % of control | [3] 99 % of control

CCOC(=O)C1=C(C)NC(C)=C(C(=O)OCC)C1c1ccc(OC)cc1
inactive: [9] 94 % of control | [5] 91 % of control | [6] 100 % of control | dose: 200.0 mg/kg/injection, schedule: Q01DX009 (ip), vehicle: Klucel (hydroxypropylcellulose) (HPC) 101 % of control

CC1CP(c2ccccc2)(c2ccccc2)(c2ccccc2)OC1(C(=O)c1ccccc1)c1ccccc1 (stereo not drawn)
inactive: dose: 6.25 mg/kg/injection, schedule: Q01DX009 (ip), vehicle: saline with Tween-80 100 % of control | dose: 25.0 mg/kg/injection, schedule: Q01DX009 (ip), vehicle: saline with Tween-80 88 % of control

O=C(O)C(O)C(O)C(=O)O.O=C(O)C(O)C(O)C(=O)O.[O]=[V].[O]=[V] (stereo not drawn)
inactive: dose: 12.5 mg/kg/injection, schedule: Q01DX009 (ip), vehicle: saline 110 % of control | dose: 15.0 mg/kg/injection, schedule: Q01DX009 (ip), vehicle: saline 102 % of control | dose: 25.0 mg/kg/injection, schedule: Q01DX009 (ip), vehicle: saline 110 % of control | dose: 25.0 mg/kg/injection, schedule: Q04DX003 (ip), vehicle: saline sonified 100 % of control | dose: 30.0 mg/kg/injection, schedule: Q01DX009 (ip), vehicle: saline 106 % of control | dose: 50.0 mg/kg/injection, schedule: Q04DX003 (ip), vehicle: saline sonified 104 % of control

Cc1ccc(N(C)c2cc(=O)n(C)c(=O)[nH]2)cc1C
inactive: dose: 50.0 mg/kg/injection, schedule: Q01DX005 (ip), vehicle: saline with Tween-80 94 % of control | dose: 100.0 mg/kg/injection, schedule: Q01DX005 (ip), vehicle: saline with Tween-80 103 % of control

OC12CC3CC(CN1)CC(C3)C2
inactive: dose: 50.0 mg/kg/injection, schedule: Q01DX005 (ip), vehicle: Klucel (hydroxypropylcellulose) (HPC) 109 % of control | dose: 100.0 mg/kg/injection, schedule: Q01DX005 (ip), vehicle: Klucel (hydroxypropylcellulose) (HPC) 99 % of control | dose: 200.0 mg/kg/injection, schedule: Q01DX005 (ip), vehicle: Klucel (hydroxypropylcellulose) (HPC) 95 % of control
